Series [1] is described as follows: Bench stability and solubility of carbene precursors. It is filed as physicochemical.
The nature of series [2]: Temperature programmed desorption of NHC films from Au. The following applies: TPD, FIG. 2. The series is classed as physicochemical. As for the experimental part:
Vapor deposition experiments were conducted in three separate stainless steel UHV chambers hosting an Ar ion sputtering gun and annealing facilities for sample cleaning. TPD data were collected in a UHV chamber (base pressure P=[…]) equipped with a quadrupole mass spectrometer (SPECTRA, Microvision Plus) in direct line-of-sight with the crystal, and a LEED/Auger spectrometer (SpectaLEED, Omicron). STM images were recorded in a third chamber (base pressure=[…]) equipped with a variable temperature scanning tunneling microscope (Omicron), and LEED optics. An electrochemically etched W tip was used for STM imaging typically employing bias voltages of ±0.6 V and tunneling currents of 300 pA. Image processing and filtering have been applied to the STM data using WSxM.

Series [3] in a line: Chemical stability tests of NHC films on Au(111) (XPS). The series is classed as physicochemical. The note with it: pH 2, THF 68° C., water RT 1 month, water 100° C., decalin, 1% H2O2; 24 h (FIGS. 7a-7g). The method, then: All films were prepared using the hydrogen carbonate salt (carbene precursor) 3a and the solution deposition method previously described. Data for stability measurements are given in Chemical Stability Results.
NHC films derived from iPr2bimy(H)[HCO3] (3a) were submerged in freshly prepared unbuffered solutions of varying pH (pH 2 or pH 12) in Ace Glass pressure tubes at 25° C. for 24 h. Experiments were conducted under N2 gas to minimize the possibility of pH change due to adsorption of atmospheric CO2. After this time, functionalized surfaces were rinsed in deionized water (3×2 mL) and dried in an N2 gas stream. The pH values of the solutions were adjusted using concentrated NaOH and HCl solutions in deionized water. Unbuffered solutions were employed in order to avoid potential adsorption effects of buffer ions from solution.
NHC films derived from iPr2bimy(H)[HCO3] (3a) were placed in Ace Glass pressure tubes and 3 mL of freshly distilled tetrahydrofuran (THF) was added. The tube was purged with nitrogen gas, sealed and heated to 68° C. for 24 h. After this time, the sample was cooled to RT, rinsed in THF (2×5 mL), and dried under a nitrogen gas stream.
NHC films derived from iPr2bimy(H)[HCO3] (3a) were placed in Ace Glass pressure tubes and 2 mL of decalin were added. The tubes were purged with nitrogen gas, sealed and heated to either 100° C. or 190° C. for 24 h. […]

For series [4], the target named is bovine serum albumin (BSA) (Bos taurus, UniProt P02769). In words: Ferulic acid / BSA interaction on NHC-CM5 chip (SPR). It is filed as binding. The note with it: 100, 200, 400, 800 μM; FIG. 20. As for the experimental part:
NHC-CM5 (500 KDa) chip was used for this study. Bovine Serum Albumin (BSA) was immobilized (covalently bound to the sensor surface) using amine-coupling chemistry. PBS (10 mM phosphate, 138 mM NaCl, 2.7 mM KCl, pH 7.4) was used as running buffer. […] Final immobilization level of BSA of this study was around 3500 RU. Unmodified dextran surface was used as a reference surface (FC1).
Ferulic acid was first serially diluted into running buffer to final concentrations of 100, 200, 400, 800 μM. To test data quality and further equilibrate the surfaces, four warm-up buffer cycles were performed at a flow rate of 30 μl/min. Then, ferulic acid was injected over the reference and BSA surfaces at a flow rate of […] cycle consisted of a 2-min waiting period for monitoring of the baseline stability. Then the ferulic acid/BSA complex was allowed to associate and dissociate for 3-min and 3-min, respectively, and 20 mM NaOH (30 s) was used as the regeneration solution. The data was processed by subtracting from reference flow cell and blank injections—double referencing method.

Series [5] has as its target HSA (Homo sapiens, UniProt P02768). Description: Opioid/protein interactions on HSA-immobilized NHC-CM5 chip (SPR). It is filed as binding. The following applies: for Detection of opioid on HSA surface of NHC-CM5 chip: 50, 100, 200, 400 μM, FIG. 21A-D. As for the experimental part: NHC-CM5 chip was used for this study. HSA was immobilized using amine-coupling chemistry. […] Three 30s-injections of 50 mM NaOH was used to wash off non-covalently bound HSA and to further stabilize the baseline. […] Unmodified dextran surface was used as a reference surface.
Opioids were first serially diluted into running buffer to final concentrations of 50, 100, 200, 400 μM. To test data quality and further equilibrate the surfaces, 4 warm-up buffer cycles were performed at a flow rate of 30 μl/min. Opioids samples were injected over the reference and HSA surfaces at a flow rate of 30 μl/min. Replicate injections of each drug concentration were analyzed. Each cycle consisted of a 1-min waiting period for monitoring of the baseline stability. Then the drug/HSA complex was allowed to associate and dissociate for 60 s and 30 s, respectively. […] Data obtained in the reference flow cell was subtracted from that obtained in the HSA immobilized flow cell.

Results on four molecules are retold here after US11008291B2, “Methods of forming carbene-functionalized composite materials” (Queen's University at Kingston, priority 2015, dated 2021).

Chain of HSA (P02768 25-609): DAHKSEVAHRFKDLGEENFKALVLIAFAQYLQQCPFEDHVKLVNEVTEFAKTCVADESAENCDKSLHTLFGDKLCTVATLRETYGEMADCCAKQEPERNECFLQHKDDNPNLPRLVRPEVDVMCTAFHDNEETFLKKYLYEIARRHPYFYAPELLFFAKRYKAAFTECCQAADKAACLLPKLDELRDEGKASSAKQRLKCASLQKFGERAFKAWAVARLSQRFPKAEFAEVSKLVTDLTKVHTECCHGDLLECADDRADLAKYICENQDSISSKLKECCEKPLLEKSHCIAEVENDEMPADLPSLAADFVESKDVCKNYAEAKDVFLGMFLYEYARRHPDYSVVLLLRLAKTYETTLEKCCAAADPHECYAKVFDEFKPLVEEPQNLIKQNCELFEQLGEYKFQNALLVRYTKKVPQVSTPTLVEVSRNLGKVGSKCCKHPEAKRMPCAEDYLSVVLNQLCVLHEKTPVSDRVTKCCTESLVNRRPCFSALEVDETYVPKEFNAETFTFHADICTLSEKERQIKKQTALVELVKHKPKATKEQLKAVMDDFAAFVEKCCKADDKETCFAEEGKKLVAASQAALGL
Chain of bovine serum albumin (BSA) (P02769 25-607): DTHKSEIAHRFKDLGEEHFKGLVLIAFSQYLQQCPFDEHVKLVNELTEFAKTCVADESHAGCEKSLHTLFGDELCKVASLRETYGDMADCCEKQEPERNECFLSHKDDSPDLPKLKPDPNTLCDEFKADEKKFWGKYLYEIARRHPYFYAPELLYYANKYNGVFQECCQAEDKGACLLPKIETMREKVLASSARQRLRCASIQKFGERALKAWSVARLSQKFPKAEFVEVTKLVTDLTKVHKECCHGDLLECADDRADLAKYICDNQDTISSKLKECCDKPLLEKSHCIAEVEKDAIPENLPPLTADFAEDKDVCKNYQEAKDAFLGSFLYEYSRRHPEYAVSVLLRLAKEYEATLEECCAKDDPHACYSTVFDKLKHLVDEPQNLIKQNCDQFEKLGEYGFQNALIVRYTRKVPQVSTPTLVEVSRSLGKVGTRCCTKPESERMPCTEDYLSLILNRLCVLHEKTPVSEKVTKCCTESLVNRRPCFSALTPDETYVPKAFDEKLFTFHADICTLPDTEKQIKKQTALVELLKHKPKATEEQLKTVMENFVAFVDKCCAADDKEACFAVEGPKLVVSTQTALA

For `CC(C)n1c[n+](C(C)C)c2ccccc21` [Compound 3a, 1,3-Diisopropylbenzimidazolium hydrogen carbonate], the “Solubility in THF and DCE” value in series [1] (THF, DCE) was “mild solubility”. In series [1] (ambient, in air), the “Stability of the solid” value is recorded as “bench-stable”. In series [1] (ethanol, methanol), the “Solubility in ethanol and methanol” value is “soluble”. Also, the Solubility in water result in series [1] (water) is reported as “highly soluble”. In addition, the “Maximum desorption temperature of NHC film from Au” value in series [2] is 605 K. Moreover, in series [3], the “XPS spectra of NHC SAM on gold derived from the precursor, before vs after treatment” value is recorded as “remained unchanged”.

In the case of `COc1cc(C=CC(=O)O)ccc1O` [ferulic acid, 4-hydroxy-3-methoxycinnamic acid], the “Sensing of ferulic acid by BSA pre-immobilized NHC-CM5 surface” value in series [4] was “can sense”.

Regarding `CC(=O)Oc1ccc2c3c1O[C@H]1[C@@H](OC(C)=O)C=C[C@H]4[C@@H](C2)N(C)CC[C@@]341` [heroin], in series [5], the “Detection of opioid on HSA surface of NHC-CM5 chip” value is reported as “successfully detected”. Moreover, in series [5] (lowest of 50, 100, 200, 400 μM), the “Detectability at the lowest concentration” value was “not detectable”.

Consider `CNC1(c2ccccc2Cl)CCCCC1=O` (stereo not shown) [ketamine], for which, in series [5], the “Detection of opioid on HSA surface of NHC-CM5 chip” value is given as “successfully detected”.
